Like-named read-outs stand apart in the source and are kept apart here.
Legend:
tumor xenograft = conditions: i.p. 9.3 mg/kg (Q2Dx4); cited from earlier work
U87-MG = conditions: cited from earlier work
HCT-116 p21^−/− cells = assay: cells; conditions: HCT-116 p21-/-
Method: Cell viability assay. Cells were plated into 96-well plates in 75 μL of media. After 24 h, a time-zero plate was produced by adding 25 μL of media and 20 μL of CellTiter-Blue® (Promega) to the wells, followed by incubation at 37° C. for 90 min. Fluorescence (544 nm excitation; 590 nm emission) was detected using a SPECTRAmax® Gemini XS to establish cell viability at time of dosing. Then, compounds were serially diluted in media and delivered to the cells as 4× solutions in 25 μL of media. At either 48 h or 72 h, CellTiter-Blue® was added and the fluorescence was recorded as described above.
Tasdemir et al. (2002) J Nat Prod 65:210-4. GI50-values of the compounds were determined in HCT-116 p21^+/+ (wt) and p21^−/− cells after 48 h using a resazurin redox dye to measure cell viability.
Methods are described above in the General Methods section.

P388 tumor cells = conditions: single i.p. treatment of 0.01 mg/kg; cited from earlier work
normal lymphocytes = conditions: cited from earlier work
A549 cells = assay: cells; type: cell-based, human; conditions: A549 cells, 48 h; read-out: GI50 (nM) 48 h
Text: Methods are essentially as described above in the General Methods section in connection with assays using HCT-116 cells.

HL-60 = conditions: cited from earlier work
normal astrocytes = conditions: cited from earlier work
[1] = test system: glioblastoma and leukemia cells; conditions: cited from earlier work
HCT-116 cells = assay: [3H]-serine pulse-labeling, HCT-116; type: cell-based, human; conditions: range of concentrations
Method: (§1) Sphingomyelin is biosynthesized from ceramide at the Golgi apparatus. Ceramide is primarily transported from the ER to the Golgi by ceramide transport protein (CERT), and the transport activity of CERT is both OSBP1- and VAP-A dependent. […] To determine whether the ORPphilins affect sphingomyelin synthesis, pulse-labeling with [^3H]-serine was performed in CHO-K1 and HCT-116 cells and the amount of tritium incorporated into sphingomyelin and other lipids then measured. Cells were treated with vehicle or compound for 6 h, and in the last 2 h the cells were pulsed with 10 μCi [^3H]-serine. Lipids were extracted and isolated by TLC, and label incorporation into sphingomyelin was measured by scintillation counting.

[2] = test system: CLL (chronic lymphocytic leukemia) cells taken from patients; conditions: read-out: GI50 fludarabine-refractory CLL cells; cited from earlier work
[3] = test system: OSBP1 localization in A549 cells; assay: OSBP1 localization by immunofluorescence microscopy, A549; type: cell-based, human
Method: Immunofluorescence microscopy. HCT-116 or A549 (adenocarcinomic human alveolar basal epithelial) cells were plated on coverslips in 6-well plates. After 72 h, the culture media was removed and replaced with media containing either compound or vehicle control. At the indicated time-points, the cells were fixed for 10 min using 3.7% formaldehyde in PBS. The coverslips were washed with PBS and permeabilized for 5 min with 0.5% Triton X-100 in PBS. Following PBS washing, the coverslips were blocked for 30 min using Image-iT™ FX (Invitrogen), washed with PBS, and then blocked for 30 min at room temperature (RT) with 1% BSA in PBS (BSA/PBS). The coverslips were then incubated overnight at 4° C. with a primary antibody solution in BSA/PBS. The coverslips were washed with BSA/PBS and incubated for 60 min at RT with Alexa Fluor®-conjugated secondary antibodies (Invitrogen) in BSA/PBS, with the final 30 min including incubation with Hoescht 33258. The coverslips were then washed sequentially with BSA/PBS, PBS, and water and finally mounted on microscope slides using Aqua Poly/Mount (Polysciences Inc.). Imaging data was acquired using Zeiss LSM 510 META scanning confocal microscope.
Perturbations of OSBP1 localization by 1, 2, and 4b in A549 cells were also observed.

CHO-K1 cells = assay: Sphingomyelin biosynthesis, [3H]-serine pulse-labeling, CHO-K1; type: cell-based
Method: as §1

[4] = molecular target: OSBP (oxysterol-binding protein) (Homo sapiens, UniProt P22059); conditions: cited from earlier work
Chain of OSBP (oxysterol-binding protein) (P22059 whole entry, species assumed): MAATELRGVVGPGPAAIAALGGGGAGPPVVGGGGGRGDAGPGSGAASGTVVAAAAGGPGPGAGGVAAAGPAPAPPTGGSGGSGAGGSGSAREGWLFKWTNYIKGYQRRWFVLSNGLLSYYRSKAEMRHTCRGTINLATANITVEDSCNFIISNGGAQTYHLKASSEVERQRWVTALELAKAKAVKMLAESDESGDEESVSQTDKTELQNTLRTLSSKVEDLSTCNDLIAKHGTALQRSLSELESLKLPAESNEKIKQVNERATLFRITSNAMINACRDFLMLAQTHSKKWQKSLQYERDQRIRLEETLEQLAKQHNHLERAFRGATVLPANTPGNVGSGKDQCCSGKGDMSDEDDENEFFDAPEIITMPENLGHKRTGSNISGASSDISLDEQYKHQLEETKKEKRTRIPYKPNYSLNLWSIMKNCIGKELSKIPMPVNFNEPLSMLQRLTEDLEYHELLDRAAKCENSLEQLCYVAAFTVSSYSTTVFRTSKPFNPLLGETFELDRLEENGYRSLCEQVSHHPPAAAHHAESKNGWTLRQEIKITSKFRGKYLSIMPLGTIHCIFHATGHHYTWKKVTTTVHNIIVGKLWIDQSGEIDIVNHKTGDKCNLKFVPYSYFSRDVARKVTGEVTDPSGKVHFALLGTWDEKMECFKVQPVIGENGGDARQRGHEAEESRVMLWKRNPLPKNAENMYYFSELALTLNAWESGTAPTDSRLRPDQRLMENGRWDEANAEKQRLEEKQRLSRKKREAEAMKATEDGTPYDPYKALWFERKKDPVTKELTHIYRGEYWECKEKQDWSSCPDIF

## schweinfurthin A
Tumor xenograft
  toxicity: without overt toxicity
  tumor volume: reduction in tumor volume compared to vehicle-treated controls

## COc1ccc(C(=O)O[C@H]2[C@H](O[C@@H]3[C@@H](OC(C)=O)[C@H](O[C@H]4C[C@H]5[C@@H]6CC=C7C[C@@H](O)CC[C@]7(C)[C@H]6CC[C@]5(C)[C@@]4(O)[C@H](C)C(=O)CCC(C)C)OC[C@@H]3O)OC[C@@H](O)[C@@H]2O)cc1 [OSW-1]
U87-MG
  GI50: 0.047 nM
  selectivity, malignant brain tumor cells versus normal astrocytes: 150 fold
HCT-116 p21^−/− cells; read-out: GI50 (nM) 48 h p21^−/−, 48 h
  GI50: 0.2 ± 0.03 nM
HCT-116 p21^−/− cells; read-out: GI50 (nM) 72 h p21^−/−, 72 h
  GI50: 0.04 nM
P388 tumor cells
  increased life span: 59%
Normal lymphocytes
  GI50: 1.73 nM
A549 cells
  GI50: 0.5 ± 0.24 nM
HL-60
  GI50: 0.04 nM
  times more active in leukemia cells versus normal lymphocytes: 40 times
Normal astrocytes
  GI50: 7.13 nM
[1]
  fold more cytotoxic toward glioblastoma and leukemia cells than non-transformed astrocytes and lymphocytes: 30-150 fold
HCT-116 cells
  ceramide labeling: no effect
[2]
  GI50: 0.3 nM
[3]
  OSBP1 localization: induced dispersal or vesiculation of OSBP1

## C[C@H](CCCC(C)(C)O)[C@H]1CC[C@H]2[C@@H]3CC=C4C[C@@H](O)CC[C@]4(C)[C@H]3CC[C@]12C [Compound 25-OHC, 25-hydroxycholesterol]
CHO-K1 cells; 5 μM, 6 h
  increase in the biosynthesis of sphingomyelin (SM): ca. 4 fold
CHO-K1 cells; 15 μM
  SM biosynthesis at GI90 dose: robust stimulation
[4]
  Kd: 37 nM

## C[C@@H]1[C@]2(O[C@H]3C=C4[C@@H]5CC[C@H]6Cc7nc8c(nc7C[C@]6(C)[C@H]5C[C@@H](O)[C@]4(C)[C@]31O)C[C@@H]1CC[C@H]3C4=CC[C@@H]5[C@H](C)[C@@]6(OC[C@]45C(=O)C[C@@H]3[C@@]1(C)C8)OC(C)(C)C[C@H]6O)O[C@](C)(CO)C[C@H]2O [cephalostatin 1, Cephalostatin 1]
[3]
  OSBP1 localization: induced dispersal or vesiculation of OSBP1

Reference: patent publication US9790253B2, “OSW-1 analogs and conjugates, and uses thereof” (priority 2011, dated 2017)
